Measurements from ChEMBL document CHEMBL4418305, “Alkyl-, acyl-, urea-, and aza-uracil sulfide:quinone oxidoreductase inhibitors” (2017).

Legend:
[1] = biological target: T1, Sulfide:quinone oxidoreductase, mitochondrial (Homo sapiens, UniProt Q9Y6N5); assay: Inhibition of SQOR (unknown origin) at 10 uM using sodium sulfide, sodium sulfite and coenzyme Q1 by UV absorbance method relative to control
Target sequence in this assay (Q9Y6N5 whole entry, looked up): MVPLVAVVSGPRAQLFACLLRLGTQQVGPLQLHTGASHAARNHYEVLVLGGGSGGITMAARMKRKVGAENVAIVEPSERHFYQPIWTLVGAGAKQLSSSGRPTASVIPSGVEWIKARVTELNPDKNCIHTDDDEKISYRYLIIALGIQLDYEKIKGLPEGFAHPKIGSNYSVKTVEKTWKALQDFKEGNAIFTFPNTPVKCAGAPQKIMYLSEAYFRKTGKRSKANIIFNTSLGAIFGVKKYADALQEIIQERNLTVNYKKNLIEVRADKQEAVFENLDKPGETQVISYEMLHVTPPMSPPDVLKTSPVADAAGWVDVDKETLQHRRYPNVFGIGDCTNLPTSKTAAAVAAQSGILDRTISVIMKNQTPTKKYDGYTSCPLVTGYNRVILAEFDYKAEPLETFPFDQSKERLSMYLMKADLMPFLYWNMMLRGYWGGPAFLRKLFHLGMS

[2] = biological target: T1, Sulfide:quinone oxidoreductase, mitochondrial; assay: Inhibition of SQOR (unknown origin) using sodium sulfide, sodium sulfite and coenzyme Q1 by UV absorbance method
Target sequence in this assay (Q9Y6N5 whole entry): as the sequence (Q9Y6N5 whole entry, looked up) above

Compound | inhibition [1] | IC50 [2] | pIC50 [2]
AUROTHIOGLUCOSE [listing 1 of 2 here] | 95 to 100% | – | –
CCCCCCCC(=O)n1nc(Br)c(=O)[nH]c1=O | > 50% | < 20 µM | –
CC(C)C(=O)n1nc(Br)c(=O)[nH]c1=O | 10 to 50% | – | –
CCCCCn1c(Cl)cc(=O)n(CCCCC)c1=O | 10 to 50% | – | –
CC(C)CCCn1cc(F)c(=O)n(CCCC(C)C)c1=O | 10 to 50% | – | –
CCCCCCCn1cc(F)c(=O)n(CCCCCCC)c1=O | > 50% | < 20 µM | –
CCCCCCCCn1c(C)c(F)c(=O)n(CCCCCCCC)c1=O | 10 to 50% | < 20 µM | –
O=c1c(F)cn(CCC2CCCCC2)c(=O)n1CCC1CCCCC1 | 10 to 50% | – | –
O=C(CCC1CCCC1)n1nc(Br)c(=O)[nH]c1=O | > 50% | < 20 µM | –
CCCCCCCC(=O)n1cc(Br)c(=O)[nH]c1=O | 10 to 50% | 20 to 100 µM | –
CCCCCCNC(=O)n1cc(F)c(=O)[nH]c1=O [CARMOFUR] | 10 to 50% | 20 to 100 µM | –
CCCCCCCCCC(=O)n1nc(Br)c(=O)[nH]c1=O | > 50% | 100 to 500 µM | –
CCCCCCCCNC(=O)n1cc(Cl)c(=O)[nH]c1=O | > 50% | < 20 µM | –
O=C(CC1CCCCC1)n1nc(Br)c(=O)[nH]c1=O | > 50% | < 20 µM | –
O=C(NCc1ccccc1)n1cc(F)c(=O)[nH]c1=O | 10 to 50% | – | –
CCCCCCCC(=O)n1nc(C)c(=O)[nH]c1=O | 10 to 50% | 20 to 100 µM | –
CCCCCCCC(=O)n1c(I)cc(=O)[nH]c1=O | 10 to 50% | < 20 µM | –
O=C(c1ccccc1)n1nc(Br)c(=O)[nH]c1=O | 10 to 50% | – | –

Compound | inhibition [1] | IC50 [2] | pIC50 [2]
CCCCCCCCNC(=O)n1cc(F)c(=O)[nH]c1=O | 10 to 50% | < 20 µM | –
CCCCCn1c(C)c(F)c(=O)n(CCCCC)c1=O | > 50% | < 20 µM | –
CCCCCCn1cc(F)c(=O)n(CCCCCC)c1=O | > 50% | < 20 µM | –
O=C(NCCc1ccccc1)n1cc(F)c(=O)[nH]c1=O | 7% | – | –
CCCNC(=O)n1cc(F)c(=O)[nH]c1=O | 6% | – | –
CCCCCC(=O)n1nc(Br)c(=O)[nH]c1=O | 10 to 50% | < 20 µM | –
CCCCCCCC(=O)n1cc(Cl)c(=O)[nH]c1=O | 10 to 50% | – | –
CCCCCCCCn1cc(F)c(=O)n(CCCCCCCC)c1=O | 10 to 50% | < 20 µM | –
O=c1c(F)cn(CCc2ccccc2)c(=O)n1CCc1ccccc1 | 10 to 50% | – | –
O=C(C1CCCCC1)n1nc(Br)c(=O)[nH]c1=O | > 50% | < 20 µM | –
CCCCCCCCCCCCCC(=O)n1nc(Br)c(=O)[nH]c1=O | > 50% | – | –
AUROTHIOGLUCOSE [listing 2 of 2 here] | – | 0.925 to 0.93 µM | 6.034
CCCCCCCC(=O)n1c(C)c(Br)c(=O)[nH]c1=O | 10 to 50% | < 20 µM | –
CCCCCCC(=O)n1cc(F)c(=O)n(C)c1=O | 10 to 50% | – | –
CCCCCCCC(=O)n1cc(F)c(=O)[nH]c1=O | 3% | – | –
CCCCCn1cc(F)c(=O)n(CCCCC)c1=O | > 50% | < 20 µM | –
CCCCCCCC(=O)n1c(Cl)cc(=O)[nH]c1=O | 10 to 50% | < 20 µM | –
CCCCCCCCCCCC(=O)n1nc(Br)c(=O)[nH]c1=O | > 50% | – | –
